A short description of series [1]: Kinetic solubility in PBS buffer. Type of series: physicochemical. Conditions: aqueous buffer, kinetic from dmso stock, compound suspended at 300 μM, 25° C. The method, then: Kinetic solubility was determined by suspending compound at 300 μM at pH 1.2 and 7.4 in PBS buffer. The suspension was equilibrated by shaking at 25° C. at 1100 RPM for 2 hours and then pH was measured following filtration. The filtrate was then diluted by an appropriate factor (e.g. 100-fold). Quantitation was done by LC-MS/MS with reference to a standard solution.

Series [2] is described as follows: Permeability in Caco-2 cell monolayer. Type of series: in vitro ADME. Conditions: human; for efflux ratio: Caco-2; for Papp A→B: Caco-2, apical to basolateral; for Papp B→A: Caco-2, basolateral to apical. The method, then: The intestinal permeability of compound(s) was evaluated in Caco-2 cells by assessing transport across the cell monolayer in the apical to basolateral (A-B) direction. Active efflux was also assessed by measuring transport in the basolateral to apical (BA) direction which enables evaluation of the efflux ratio. Analysis of transport is quantified by tandem mass spectrometry (LC-MS/MS).
(Caco-2 monolayers are a common model of the intestinal barrier.)

Series [3] can be described thus: LM stability assay, human (second table). Type of series: in vitro ADME. Conditions: human liver microsomes, Table 2; for microsomal CLint: read-out: LM stability assay Human Clint (μL/min/mg protein); for half-life: read-out: LM stability assay Human t1/2. How it is done: Metabolism of compound(s) to release (+)-α-DTHBZ was determined by the half-life (t1/2) and intrinsic clearance (CIint) in human liver microsomes (LM) using tandem mass spectrometry (LC-MS/MS).
A general note: Liver microsomes are vesicles of endoplasmic reticulum, rich in cytochrome P450 enzymes.

Series [4] is described as follows: Metabolic stability in human liver microsomes (LM), LC-MS/MS (first table). Type of series: in vitro ADME. Conditions: for microsomal CLint: Table 1, read-out: Human LM CLint (μL/min/mg protein); for half-life: Table 1, read-out: Human LM t1/2. The method, then:
(§1) Metabolism of compound(s) to release (+)-α-DTHBZ was determined by the half-life (t1/2) and intrinsic clearance (CIint) in human plasma (PS) and liver microsomes (LM) using tandem mass spectrometry (LC-MS/MS).

A short description of series [5]: Stability in human plasma (PS), LC-MS/MS. Type of series: in vitro ADME. Conditions: for half-life: read-out: Human PS t1/2. How it is done: as §1
Series [6] concerns human cryopreserved hepatocytes. As to the kind of experiment: Heps. stability assay, human cryopreserved hepatocytes. Type of series: in vitro ADME. How it is done: (§2) Metabolism of compound(s) to release (+)-α-DTHBZ was determined by the half-life (t1/2) and intrinsic clearance (CIint) in human cryopreserved hepatocytes using tandem mass spectrometry (LC-MS/MS).
Experiment in series [7]: as above
Conditions: for microsomal CLint: read-out: Heps. stability assay Human Clint (μL/min/mg protein); for half-life: read-out: Heps. stability assay Human t1/2. Type of series: in vitro ADME. How it is done:
as §2

For series [8] the following is noted: cited from earlier work.
Series [9] has as its target vesicular monoamine transporter-2 (VMAT2) (Homo sapiens, UniProt Q05940). As to conditions: read-out: IC50, inhibition of catecholamine uptake by VMAT2; cited from earlier work.
For series [10] the following is noted: in vivo; cited from earlier work.
For series [11] the following is noted: human, oral 25 mg IR formulation; cited from earlier work.
The conditions of series [12]: cited from earlier work. The source holds these as a separate data set.
For series [13] the following is noted: compared to the other three isomers; cited from earlier work.
The test system of series [14] is VMAT1, other receptors (e.g., dopamine D2 receptors), transporters, and ion channels. As to conditions: in vitro; cited from earlier work.
[15] abbreviates: pH 1.2, PBS buffer, read-out: Kinetic Solubility pH = 1.2 (300 μM).
Where [16] appears, read: pH 7.4, PBS buffer, read-out: Kinetic Solubility pH = 7.4 (300 μM).

Each structure is given as a SMILES string. Converted amounts (≈) assume the structure as drawn. Like-named read-outs stand apart in the source and are kept apart here.

Chain of vesicular monoamine transporter-2 (VMAT2) (Q05940 whole entry, species assumed): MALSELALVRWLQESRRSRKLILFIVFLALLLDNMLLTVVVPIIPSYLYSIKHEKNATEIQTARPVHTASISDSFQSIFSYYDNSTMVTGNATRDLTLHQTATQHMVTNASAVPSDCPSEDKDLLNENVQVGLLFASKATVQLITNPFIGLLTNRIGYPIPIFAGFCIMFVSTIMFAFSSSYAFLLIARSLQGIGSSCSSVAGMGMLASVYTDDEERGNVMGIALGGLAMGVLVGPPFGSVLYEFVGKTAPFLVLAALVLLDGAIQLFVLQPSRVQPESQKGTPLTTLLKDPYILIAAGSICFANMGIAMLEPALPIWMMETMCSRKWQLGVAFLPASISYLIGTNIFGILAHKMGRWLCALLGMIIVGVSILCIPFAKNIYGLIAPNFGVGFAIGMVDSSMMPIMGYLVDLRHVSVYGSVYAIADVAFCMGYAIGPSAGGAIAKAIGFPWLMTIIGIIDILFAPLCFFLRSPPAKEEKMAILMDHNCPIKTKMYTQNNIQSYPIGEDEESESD

For `COc1cc2c(cc1OC)[C@H]1C[C@@H](OC(=O)c3cncc(C(=O)O)c3)[C@H](CC(C)C)CN1CC2` [Example 6, 5-([[(2R,3R,11bR)-9,10-dimethoxy-3-(2-methylpropyl)-1H,2H,3H,4H,6H,7H,11bH-pyrido[2,1-a]isoquinolin-2-yl]oxy]carbonyl)pyridine-3-carboxylic acid], the kinetic solubility at 2 h was found to be 276 µM (≈ 130 µg/mL) in series [1] (setting [15]) and 294 µM (≈ 138 µg/mL) in series [1] (setting [16]). Further, the efflux ratio in series [2] is 25.1. The Papp A→B in series [2] was 0.68 ×10⁻⁶ cm/s. In [2], this compound came in with a Papp B→A of 17.1 ×10⁻⁶ cm/s. The microsomal CLint in series [3] was 1.67 µL/min/mg; in series [4] it was under 0.35 µL/min/mg. The half-life was 802 min in series [3], over 1970 min in series [4] and over 1.86 days in series [5]. Besides, the “Heps. stability assay Human t1/2 (min)” value in series [6] is “∞”.
For `COc1cc2c(cc1OC)[C@H]1C[C@@H](OC(=O)CCC(=O)O)[C@H](CC(C)C)CN1CC2` [Example 2, 4-[[(2R,3R,11bR)-9,10-dimethoxy-3-(2-methylpropyl)-1H,2H,3H,4H,6H,7H,11bH-pyrido[2,1-a]isoquinolin-2-yl]oxy]-4-oxobutanoic acid], the kinetic solubility at 2 h in [1] (setting [15]) stood at 281 µM (≈ 118 µg/mL). Also, the kinetic solubility at 2 h in series [1] (setting [16]) was 295 µM (≈ 124 µg/mL). Further, in [2], the efflux ratio worked out at 2.54, the apical-to-basolateral permeability (Papp A→B) came to 8.67 ×10⁻⁶ cm/s and the Papp B→A turned out to be 22 ×10⁻⁶ cm/s. In addition, the “LM stability assay Human t1/2 (min)” value in [3] was “∞”. In addition, in series [4], the microsomal CLint was under 0.79 µL/min/mg and the half-life is over 880 min. Besides, the “Human PS t1/2 (min)” value in series [5] is “∞”. For the same compound, the “Heps. stability assay Human t1/2 (min)” value in series [6] is “∞”.
For `COc1cc2c(cc1OC)[C@H]1C[C@@H](OC(=O)CCCCCCC(=O)O[C@@H]3C[C@@H]4c5cc(OC)c(OC)cc5CCN4C[C@H]3CC(C)C)[C@H](CC(C)C)CN1CC2` [Example 16, bis[(2R,3R,11bR)-9,10-dimethoxy-3-(2-methylpropyl)-1H,2H,3H,4H,6H,7H,11bH-pyrido[2,1-a]isoquinolin-2-yl] octanedioate], the kinetic solubility at 2 h in [1] (setting [15]) is 141 µM (≈ 110 µg/mL); in series [1] (setting [16]), 0.042 µM (≈ 0.0326 µg/mL). In series [2], this compound returned a Papp A→B of under 0.02 ×10⁻⁶ cm/s. The Papp B→A in [2] is under 0.01 ×10⁻⁶ cm/s. For the same compound, the microsomal CLint in [3] is 150 µL/min/mg; in [4], under 1.25 µL/min/mg; in [7] it was 22.6 µL/min/mg. Further, the results for the half-life in series [3], in [4] and in [7] were 4.65 min, over 553 min and 61.7 min, respectively. Moreover, in series [5], the “Human PS t1/2 (min)” value is given as “∞”.
For `COc1cc2c(cc1OC)C1CC(=O)C(CC(C)C)CN1CC2` (stereo not shown) [TBZ, 3-isobutyl-9,10-dimethoxy-1,3,4,6,7,11b-hexahydro-2H-pyrido[2,1-a]isoquinolin-2-one], in [8] (pH<2), the “solubility in acidic environments” value was 8500 µg/mL (≈ 26.8 mM). The “solubility in neutral environments” value in series [8] (pH>4) is 30 µg/mL (≈ 0.0945 mM). For the same compound, the half-maximal inhibitory concentration (IC50) in [9] is 3.2 nM. Further, the Tmax in [10] was 60 min. Further, in [11], the “Mean Tmax” value is “approximately 1 hour” and the “mean t1/2” value is “approximately 2 hours”.
In the case of `COc1cc2c(cc1OC)[C@H]1C[C@@H](OC(=O)CCC(=O)OC(C)C)[C@H](CC(C)C)CN1CC2` [Example 7, (2R,3R,11bR)-9,10-dimethoxy-3-(2-methylpropyl)-1H,2H,3H,4H,6H,7H,11bH-pyrido[2,1-a]isoquinolin-2-yl 1-isopropyl butanedioate], the kinetic solubility at 2 h in series [1] (setting [15]) worked out at 311 µM (≈ 143 µg/mL); in [1] (setting [16]) it was 5.84 µM (≈ 2.7 µg/mL). In addition, in series [2], the efflux ratio came out at 0.84. For the same compound, the apparent permeability from apical to basolateral (Papp A→B) in [2] was found to be 1.78 ×10⁻⁶ cm/s. This compound also yielded a Papp B→A in series [2] of 1.5 ×10⁻⁶ cm/s. Further, the values for the microsomal CLint in series [3], in series [4] and in [7] were 922 µL/min/mg, 65.8 µL/min/mg and 282 µL/min/mg, respectively. The half-life was 0.75 min in series [3], 10.6 min in [4], over 0.564 days in [5] and 4.92 min in [7].
Consider `COc1cc2c(cc1OC)[C@H]1C[C@@H](OC(=O)NCC(C)C)[C@H](CC(C)C)CN1CC2` [Example 23, (2R,3R,11bR)-9,10-dimethoxy-3-(2-methylpropyl)-1H,2H,3H,4H,6H,7H,11bH-pyrido[2,1-a]isoquinolin-2-yl N-(2-methylpropyl)carbamate], for which the solubility (kinetic) at 2 h in [1] (setting [15]) stood at 312 µM (≈ 131 µg/mL); in [1] (setting [16]) it was 91.2 µM (≈ 38.2 µg/mL). Moreover, in series [2], the efflux ratio was 0.67. This compound came in with an apical-to-basolateral permeability (Papp A→B) in series [2] of 14.2 ×10⁻⁶ cm/s. The compound also gave an apparent permeability from basolateral to apical (Papp B→A) in series [2] of 9.54 ×10⁻⁶ cm/s. Moreover, the microsomal CLint in [3] was 208 µL/min/mg; in series [4] it was under 3.95 µL/min/mg; in [7], 35.6 µL/min/mg. In addition, the half-life in series [3] is 3.34 min; in series [4] it was over 175 min; in [5], 18.2 days; in [7], 39 min.
In the case of `[2H]C([2H])([2H])Oc1cc2c(cc1OC([2H])([2H])[2H])C1CC(=O)C(CC(C)C)CN1CC2` (stereo not shown) [Austedo®], the “median Tmax” value in [10] is 180 to 240 min.
For `COc1cc2c(cc1OC)[C@H]1C[C@@H](O)[C@H](CC(C)C)CN1CC2` [(+)-α-DHTBZ, 2R,3R,11bR-dihydrotetrabenazine], the “Cmax (time) of (+)-α-DHTBZ formed from Valbenazine” value in series [12] (after Valbenazine, hydrolysis of the valine ester) was 4 to 8 h. Also, the “Tmax of (+)-α-DHTBZ after the administration of Valbenazine” value in series [12] (after administration of Valbenazine) was 240 to 480 min. Besides, the “off-target affinity” value in series [13] was “no off-target affinity”.
In the case of `COc1cc2c(cc1OC)[C@H]1C[C@@H](OC(=O)c3cncc(C(=O)OC(C)C)c3)[C@H](CC(C)C)CN1CC2` [Example 9, 3-((2R,3R,11bR)-3-isobutyl-9,10-dimethoxy-1,3,4,6,7,11b-hexahydro-2H-pyrido[2,1-a]isoquinolin-2-yl) 5-isopropyl pyridine-3,5-dicarboxylate], the solubility (kinetic) at 2 h in series [1] (setting [15]) turned out to be 292 µM (≈ 149 µg/mL). Also, the kinetic solubility at 2 h in series [1] (setting [16]) came out at 0.0018 µM (≈ 0.000919 µg/mL). Besides, in series [2], the efflux ratio was determined as 0.95, the Papp A→B is 0.202 ×10⁻⁶ cm/s and the Papp B→A came out at 0.191 ×10⁻⁶ cm/s. In series [3], the microsomal CLint came out at 613 µL/min/mg and the half-life turned out to be 1.13 min. For the same compound, in series [4], the microsomal CLint came out at 16.3 µL/min/mg and the half-life was found to be 42.5 min. Also, the “Human PS t1/2 (min)” value in [5] is “∞”. Further, in [7], the microsomal CLint came out at 121 µL/min/mg and the half-life turned out to be 11.5 min.
On to `COc1cc2c(cc1OC)[C@H]1C[C@@H](OC(=O)[C@@H](N)C(C)C)[C@H](CC(C)C)CN1CC2` [Valbenazine, (2R,3R,11bR)-9,10-dimethoxy-3-(2-methylpropyl)-1,3,4,6,7,11b-hexahydro-2H-benzo[a]quinolizin-2-yl L-valinate], for which, in [12] (in vivo, po), the oral bioavailability is listed as 49%. In addition, in series [12] (in vivo), the Tmax was 30 to 60 min, the excreted in feces is 30%, the excreted in urine result is recorded as “Approximately 60%” and the “parent compound or active metabolite excreted unchanged” value is listed as “Less than 2%”. Also, in [12] (in vivo), the t1/2 was 900 to 1320 min. In [14], the “affinity for VMAT1, other receptors, transporters, and ion channels” value is recorded as “little or no affinity”.

As a reminder, the kinetic solubility is the concentration staying in solution when a stock, usually in DMSO, is diluted into the medium. As usually defined, the efflux ratio is the permeability from basolateral to apical divided by that in the opposite direction, in the common usage. As usually defined, the Papp A→B is how fast a substance crosses the layer from the apical side. Usually Papp B→A stands for the apparent permeability from the basolateral to the apical side of a cell layer. By IC50 is commonly meant the concentration that gives 50% inhibition. For orientation: Tmax means the time from dosing to the highest level.

Values taken from patent US20210087191A1, “SUBSTITUTED 3-ISOBUTYL-9,10-DIMETHOXY-1,3,4,6,7,11B-HEXAHYDRO-2H-PYRIDO[2,1-a]ISOQUINOLIN-2-OL COMPOUNDS, THEIR [sequence], AND USE THEREOF” (DISPERSOL TECHNOLOGIES, LLC, priority 2020, published 2021).
